# From patent US6663858B1, “In Vivo gene transfer using implanted retroviral producer cells” (The Regents of the University of California, priority 1991, dated 2003)
# Values joined by “and” are separate entries in the source; they are usually repeats but may differ in a detail not shown here. Equal entries are not always repeated. “Also recorded” adds a separate entry of the source.
# Assays:
# 9 L brain tumors [1] = assay: Short-term (17 days) 9 L brain tumor volume after HSV-TK producer cell implantation and GCV; format: in vivo, Fischer 344 rats
# Experimental: (§1) Tumor Cell and Producer Cell Implantation. The 9 L cells were maintained in Dulbecco's modified Eagle's medium with 10% fetal bovine serum, penicillin G (100 units/ml), streptomycin sulfate (100 μg/ml). Brain tumors were established in adult female Fischer 344 rats which were housed and handled in accordance with National Institutes of Health guidelines.
# (§2) In all studies tumors were implanted by an intracerebral injection of 2×10^5 tumor cells into the region of the right caudate nucleus (3 mm lateral, 1 mm anterior to bregma, 4 mm ventral) (Paxinos, G. & Watson, C. (1987) The Rat Brain in Stereotaxic Coordinates (University Press ***).
# Animals in short-term studies underwent a second surgery 3 days after tumor implantation, at which time retroviral producer cells (either 2×10^5 in 4 μl or 2×10^6 in 8 μl, representing an equal, number (1×) or 10 times (10×) the number of injected tumor cells, respectively) were implanted into the established brain tumors and allowed to grow with brain tumor cells for 7 days. Ten days after tumor implantation, subsets of animals were given 0.2 ml intraperitoneal injections of GCV (Syntex, Palo Alto, Calif.) 50 mg/kg once a day for 7 or 14 days. Animals in the short-term experiments were sacrificed after 7 days of GCV administration (17 days after tumor implantation) and then perfused with 4% paraformaldehyde.
# Brain Tumor Analysis. Short-term treatment response was determined by comparing individual brain tumor volumes measured by postmortem stereologic study in groups containing a minimum of five animals.
# (§3) Long-term results were studied in 90-day survival studies with tumor volumes determined in long-term survivors. Stained brain sections were examined and tumor volumes were quantified by stereologic methods (Gundersen, H. J. G., Bagger, P. & Bendtsen, T. F. (1988) APMIS ***96, 857-881). Tumor volumes were compared by the Mann-Whitney U test. In long-term survival experiments (90 days), animals were observed daily and survival data were analyzed by Kaplan-Meier analysis with the Mantel-Cox statistic.
# 9 L brain tumors [2] = assay: Long-term (90-day) survival of rats with 9 L brain tumors after HSV-TK producer cells and GCV; format: in vivo, Fischer 344 rats; details: for treated animals surviving 90 days: both long-term trials combined, HSV-TK producer cells plus GCV
# Experimental: as §1, §2
# Two trials of long-term (90-day) survival were performed. In the first, producer cells (2×10^5), equal to the initial number of tumor cells implanted) were grafted into 3-day-old brain tumors. GCV treatments were started in 12 animals 7 days later (tumor day 10) and continued for 7 days; 8 animals received no GCV. In the second trial, 2×10^5 or 2×10^6 producer cells in 50 μl (representing 1× or 10× the number of injected tumor cells, respectively) were grafted into 3-day-old established brain tumors of 10 animals per group. GCV treatments started 7 days later and were administered for 14 days.
# as §3
# 9 L tumor cells = assay: Repeat tumor challenge in long-term survivors; format: in vivo, Fischer 344 rats
# Description: Repeat Tumor Challenge. Four animals with long-term tumor regression were studied with repeat tumor challenges 90 days after the initial tumor implantation. Animals underwent repeated intracerebral injections of 2×10^5 9 L tumor cells into the left caudate nucleus and injections of 1×10^6 9 L tumor cells into the right flank. Five normal, naive rats received identical injections of 9 L tumor cells. Animals were sacrificed and perfused 17 days later to determine resulting tumor volumes.
# 9 L brain tumors [3] = details: no producer cell injections; Barba et al. 1993; cited from earlier work
# [4] = test system: C6 glial tumor cells infected with STK, NTK or μTK vector; assay: Survival of C6 glioma clones carrying HSV-TK vectors in increasing concentrations of acyclovir; format: cell-based; details: C6 clones infected with each vector (STK, NTK, μTK); acyclovir 0.1 to 100 μg/ml for 3 days
# Experimental: Murine retroviral vectors carrying the HSV-TK gene, the STK, NTK, and μTK vectors, were obtained from Dr. F. L. Moolten. The plasmid forms of the vectors were transfected into −2 cells (Mann et al., Cell 33:153-159 (1983)); selection with 1 mg/ml of the neomycin analog G418 permitted the isolation of clone producer lines that yielded viruses capable of transducing G418 resistance and HSV-TK activity. Virus titers were determined by the limiting dilution method and found to be greater than 50 pfu/cell. As expected with −2 cells, no replication-competent virus was detected.
# The replicative defective viruses produced by −2 cells were used to infect C6 glial tumor cells. The cells to be infected were grown in DME plus 10% fetal bovine serum plus 4 μg/ml of polybrene and were grown to about 60-70% confluence in a T75 flask or about 2×10^6 cells/ml. The cells were infected with about 100 pfu/cell of virus. The infected cells were cultured for 24 hours with Dulbecco's Medium containing 10% fetal bovine serum and antibiotics; afterwards they were exposed to 1 mg of G418/ml to select for cells that expressed vector-derived genes.
# Clones resulting from infection of C6 glial cells with each of the vectors were exposed to acyclovir at concentrations ranging from 0.1 to 100 μg/ml for 3 days. Each vector rendered the glial cells sensitive to acyclovir.
# cells carrying HSV-TK = assay: 3-day cytotoxicity assay, cells carrying HSV-TK; format: cell-based; details: 72 h, read-out: inhibitory dose for 50% of the cells
# Experimental: (§4) Similar results were obtained in a 3-day cytotoxicity assay; the inhibitory dose of acyclovir for 50% of the cells lacking the HSV-TK gene was greater than […] for cells carrying HSV-TK.
# [5] = test system: cells lacking the HSV-TK gene; assay: 3-day cytotoxicity assay, cells lacking the HSV-TK gene; format: cell-based; details: 72 h, read-out: inhibitory dose for 50% of the cells
# Experimental: as §4
# [6] = HSV-TK producer cells plus GCV, 17-day-old tumors
compound,measurement,setting,value
"Nc1nc2c(ncn2COC(CO)CO)c(=O)[nH]1 [GCV, 9-((2-hydroxy-1-(hydroxymethyl)ethoxy)methyl) guanine]",tumor volume / tumor regression versus rats not treated with GCV,"9 L brain tumors [1]; HSV-TK producer cells (1:1 or 10:1) implanted day 3, GCV 50 mg/kg per day i.p. for 7 days, day 17",Significant tumor regression; also recorded: significantly smaller
same,treated animals with focal regression of part of the tumor adjacent to unaffected tumor,9 L brain tumors [1]; [6],about 50%
same,treated animals with unaffected tumors,9 L brain tumors [1]; [6],about 10%
same,"animals alive after 90 days in each experimental group, second trial","9 L brain tumors [2]; 1× or 10× producer cells, 10 animals per group, GCV for 14 days",two
same,"treated animals surviving 90 days, first trial","9 L brain tumors [2]; 2×10^5 producer cells, GCV for 7 days from tumor day 10, none of 8 untreated survived longer than 25 days",3 of 12
same,"tumor volume in the third surviving treated animal, first trial",9 L brain tumors [2]; 90 days,62 mm^3
same,"residual tumor volume in two of the surviving treated animals, first trial","9 L brain tumors [2]; 90 days, small intracerebral cysts",< 0.2 mm^3
same,"survival, GCV for 7 versus 14 days",9 L brain tumors [2]; both groups receiving 1× producer cells,no difference
same,"survival, 1× versus 10× producer cells",9 L brain tumors [2]; both groups receiving GCV for 14 days,No difference in survival
same,treated animals surviving 90 days,9 L brain tumors [2],22%
same,treated animals surviving 90 days,9 L brain tumors [2]; controls 0/8,7 of 32 and 7/32
same,survival of treated versus control animals,"9 L brain tumors [2]; combined treated groups, Kaplan-Meier, P<0.002",highly significant difference; also recorded: significant improvement in survival
same,flank tumor nodules after repeat challenge,"9 L tumor cells; 1×10^6 9 L cells into right flank, 17 days, flank tumors in four of five naive rats",failed to detect any tumor nodules
same,tumor volume at the site of the secondary tumor cell implants (left hemisphere),"9 L tumor cells; 2×10^5 9 L cells, 17 days after repeat challenge, naive animals 129-169",< 0.2 mm^3
same,tumor volume at the site of the initial tumor cell implantation in long-term survivors,"9 L tumor cells; four long-term survivors of second trial, 17 days after repeat challenge",0.6-2.0 mm^3
same,growth of repeat tumor injections in rats surviving 90 days,"9 L tumor cells; repeat 9 L injections after HSV-TK producer cells and GCV, tumors grew in naive rats",rejected repeat tumor injections; also recorded: absence of growth of injected tumor cells; also recorded: inhibition of growth of the injected tumor cells
same,tumor regression in animals treated with GCV without producer cell injections,9 L brain tumors [3],not seen
"Nc1nc2c(ncn2COCCO)c(=O)[nH]1 [acyclovir, 9-((2-hydroxyethoxy)methyl)guanine]","sensitivity of glial cells to acyclovir (survival, FIG. 2)",[4],sensitive
same,IC50,cells carrying HSV-TK,0.5 µg/mL
same,IC50,[5],> 10 µg/mL
